For series [1], the system named is parental replicon cellular line, Huh-9-13. The series can be described thus: Susceptibility of parental replicon cellular line. It is filed as cell-based, hepatitis C virus. Conditions: for EC50: Hepatitis C virus, read-out: EC50 ± SD; for Fold change in EC50: Parental cell line (Table 4). In general terms: In antiviral work, replicon cells carry a viral genome segment that copies itself.

The next series deals with BILN 2061^R (D168V). The series can be described thus: Susceptibility of BILN 2061 resistant replicon cell line. It is filed as cell-based, hepatitis C virus. The conditions noted are these: BILN 2061^R (D168V) versus Huh-9-13.
For a further series, the system named is NM107^R (S282T). As to the kind of experiment: Susceptibility of NM107 resistant replicon cell line. The conditions noted are these: NM107^R (S282T) versus Huh-9-13. It is filed as cell-based, hepatitis C virus.
The next series has as its system NNI-1^R (M414T). The series can be described thus: Susceptibility of NNI-1 resistant replicon cell line. It is filed as cell-based, hepatitis C virus. The conditions noted are these: NNI-1^R (M414T) versus Huh-9-13.
For a further series, the system named is VX-950^R (A156T). The series can be described thus: Susceptibility of VX-950 resistant replicon cell line. The format is cell-based, hepatitis C virus. Conditions: VX-950^R (A156T) versus Huh-9-13.
In another series the test system is NI-1^R (S282T). The series can be described thus: Susceptibility of NI-1 resistant replicon cell line. The format is cell-based, hepatitis C virus. Conditions: NI-1^R (S282T) versus Huh-9-13.
Series [2] deals with the molecule itself. As to the kind of experiment: Western blot of transfected cell lysate, treated with ACH-806. (Immunoblotting shows a protein as a band on a membrane.)
Series [3] concerns the molecule itself. As to the kind of experiment: anti-NS4A immunoprecipitation and immunoblot of replicon cells or NS4A-transfected cells; dimer promoted by the compound ACH-806.

Experimental findings from US20100093018A1, “CELLS […] PROTEINS AND ASSAYS USING SUCH CELLS” (ACHILLION PHARMACEUTICALS, INC., priority 2007, published 2010) are described below.

As usually defined, the EC50 is the concentration needed to bring the measured effect to its halfway point. `CCC[C@H](NC(=O)[C@@H]1[C@H]2CCC[C@H]2CN1C(=O)[C@@H](NC(=O)[C@@H](NC(=O)c1cnccn1)C1CCCCC1)C(C)(C)C)C(=O)C(=O)NC1CC1` [VX-950]: the EC50 in series [1] came to 610 nM. Further, the “Fold change in EC50” value in series [1] turned out to be 1.0; in the series on BILN 2061^R (D168V), 2.9; in the series on NM107^R (S282T), 0.3; in the series on NNI-1^R (M414T) it was 2.3.

In the case of `COc1ccc2c(O[C@@H]3C[C@H]4C(=O)N[C@]5(C(=O)O)C[C@H]5/C=C\CCCCC[C@H](NC(=O)OC5CCCC5)C(=O)N4C3)cc(-c3csc(NC(C)C)n3)nc2c1` [BILN 2061], the EC50 in series [1] was found to be 1.2 nM. Moreover, the “Fold change in EC50” value in series [1] is 1.0; in the series on VX-950^R (A156T) it was more than 100; with BILN 2061^R (D168V), more than 100; with NM107^R (S282T), 1.1; in the series with NI-1^R (S282T), 1.4; in the series on NNI-1^R (M414T), 2.8.

Regarding `C[C@@]1(O)[C@H](O)[C@@H](CO)O[C@H]1n1ccc(N)nc1=O` [NM107], the “Fold change in EC50” value in series [1] is on record as 1.0; with NM107^R (S282T), 30.7; in the series with NI-1^R (S282T) it was more than 68.7.

B1: NS4A-cFLAG (HCV NS4A (1b) with C-terminal FLAG antibody tag) (other)
chain: STWVLVGGVLAALAAYCLTTGSVVIVGRIILSGKPAIIPDREVLYREFDEMEECDYKDDDDK
notes: also called NS4A-FLAG; product of pCl-neo-NS4A-cFlag
In the case of B1, the binding result in series [2] is recorded as “binds”.

B2: HCV NS4A protein (other)
chain: STWVLVGGVLAALAAYCLTTGSVVIVGRIILSGKPAIIPDREVLYREFDEMEEC
notes: also called hepatitis C virus NS4A; monomer of p14
Consider B2, for which the binding result in series [3] is reported as “binds”.
